Assay results reported in patent US8227616B2, “Cyanopyridine antibacterial agents and methods of use thereof” (Wisconsin Alumni Research Foundation, priority 2006, dated 2012).
In brackets after ≈: the same amount, converted by molar mass.

Test system: Methicillin-resistant S. aureus ATCC 33591 (MRSA)
Test: MIC determination with authentic compounds resynthesized in solution
Assay type: cell-based
Conditions: Staphylococcus aureus; Table 3; authentic sample, only trans isomers of chalcones; error reflects step size in the serial dilutions
Experimental: For estimated MIC determination, DMSO was added to the dried compound residue obtained from a single spot to afford ca. 100 μL of a 2 mM stock solution. Aliquots (5 μL) of these solutions were added to a 96-well plate, followed by 195 μL of diluted S. aureus 10390 (10^6 CFUs/mL) to yield ca. 50 μM final concentrations. The plates were swirled for 1 h to ensure compound dissolution, incubated for 12 h at 37° C., and the absorbance at 595 nm was recorded using a plate reader. […] Actual MIC values were determined for lead compounds resynthesized in solution using an analogous procedure with solutions of known concentration (see).
Dose response growth inhibition curves were determined for each active compound (resynthesized in solution) against S. aureus 10390 (SA) and methicillin-resistant S. aureus 33591 (MRSA). […] MIC assays were performed in quadruplicate.

SMILES: O=C(/C=C/c1cc(C(F)(F)F)cc(C(F)(F)F)c1)c1cccc(O)c1 [Compound 4Bv, 3′-hydroxy-3,5-bis(trifluoromethyl)chalcone]
- MIC: 3 ± 0.5 µM (≈ 1.08 µg/mL)
